From patent US20090131519A1 (priority 2005, published 2009)

Columns and labels:
Fusarium fungi [1] = assay: Field trial, winter wheat "Ritmo", Gronau 2004: natural Fusarium ear infection, DON and NIV content of grains (HPLC/MS), grain yield; type: in vivo
mildew = details: pre-treatment; cited from earlier work
Fusarium fungi [2] = assay: Field trial, winter wheat "Slade", Ulhówek (Poland) 2004: natural Fusarium ear infection, DON and ZEA content of grains (HPLC/MS), grain yield; type: in vivo; details: for ZEA content of the grains / Infection (ears infected by Fusarium fungi) / Grain yield: dose prohexadione-Ca 50, metconazole 90; for ZEA content of the grains: relative to untreated = 100% (0.073 mg per kg of harvested grains); for Infection (ears infected by Fusarium fungi): relative to untreated = 100% (4.5% of the ears infected), assessed Jul. 22, 2004; for Grain yield: relative to untreated = 100% (8.6 t/ha)
[3] = test system: Fusarium graminearum (strain 4528); details: cited from earlier work
Fusarium graminearum = details: in vivo; cited from earlier work

With prohexadione-calcium the “Content of the grains of NIV” value (Fusarium fungi [1]; in vivo) was 75%, the “Content of the grains of DON” value (Fusarium fungi [1]; relative to untreated = 100% (22.4 mg of DON per kg of harvested grains), 50 g/ha, Jun. 7, 2004) was 81% and the Grain yield (Fusarium fungi [1]; relative to untreated = 100% (2.9 t/ha), 50 g/ha, Jun. 7, 2004) was 109%. The “Infection (ears infected by Fusarium fungi)” value (Fusarium fungi [1]; relative to untreated = 100% (43.8% of the ears infected), 50 g/ha applied Jun. 7, 2004 at beginning of flowering, assessed Jun. 28, 2004) was 91%, the “Reduction of infection of wheat with mildew” value (mildew) was “cannot be reduced” and the “ZEA content of the grains” value (Fusarium fungi [2]; treatment date 10.6.) was 23%. The “Infection (ears infected by Fusarium fungi)” value (Fusarium fungi [2]; treatment date 10.6.) was 78%, the Grain yield (Fusarium fungi [2]; treatment date 10.6.) was 98% and the “ZEA content of the grains” value (Fusarium fungi [2]; treatment date 19.6.) was 32%. For the same compound, the “Infection (ears infected by Fusarium fungi)” value (Fusarium fungi [2]; treatment date 19.6.) was 51%, the Grain yield (Fusarium fungi [2]; treatment date 19.6.) was 105% and the “DON content of the grains (statement in words)” value (Fusarium fungi [2]; winter wheat Slade, Ulhówek 2004, no DON figures printed) was “reduces the DON and ZEA contents considerably”.
In the case of `CC(C)C(O)(c1ccc(OC(F)(F)F)cc1)c1cncnc1` (centres unmarked) [flurprimidole], the “Inhibition of mycelium growth” value [3] is given as “only weakly” and the “Inhibition of the formation of 3-acetyldeoxynivalenol (3-ADON)” value [3] is given as “only weakly”.
With `CC1(C)CCC(Cc2ccc(Cl)cc2)C1(O)Cn1cncn1` (centres unmarked) [metconazole, reference compound] the “ZEA content of the grains” value (Fusarium fungi [2]; treatment date 10.6.) was 53%, the “Infection (ears infected by Fusarium fungi)” value (Fusarium fungi [2]; treatment date 10.6.) was 18% and the Grain yield (Fusarium fungi [2]; treatment date 10.6.) was 108%. The “ZEA content of the grains” value (Fusarium fungi [2]; treatment date 19.6.) was 33%, the “Infection (ears infected by Fusarium fungi)” value (Fusarium fungi [2]; treatment date 19.6.) was 18% and the Grain yield (Fusarium fungi [2]; treatment date 19.6.) was 110%.
In the case of `COc1ccc(C(O)(c2cncnc2)C2CC2)cc1` (centres unmarked) [ancymidole], the “Inhibition of mycelium growth” value [3] is given as “only weakly” and the “Inhibition of the formation of 3-acetyldeoxynivalenol (3-ADON)” value [3] is given as “only weakly”.
For `C[N+](C)(C)CCCl.[Cl-]` [chlormequat chloride, 2-chloroethyltrimethylammonium chloride], the “Effect on the susceptibility of wheat ears to infection with Fusarium graminearum” value (Fusarium graminearum) is given as “no direct effect”.
